Results published in patent US10329294B2, “Pyrazolopyrimidine inhibitors of IRAK4 activity” (MERCK SHARP & DOHME CORP., priority 2015, dated 2019).
Counter-ions that a name gives are not always drawn.

Each compound was assayed against IRAK4 (Homo sapiens (Human), UniProt Q9NWZ3) (assay: IRAK4 Kinase Assay). Details: IMAP fluorescence polarization, 0.5 nM GST tagged IRAK4, 100 μM ATP, 30 minutes at 25° C.; read-out: IRAK4 IC50.
Format: biochemical

Sequence of IRAK4 (Q9NWZ3 whole entry): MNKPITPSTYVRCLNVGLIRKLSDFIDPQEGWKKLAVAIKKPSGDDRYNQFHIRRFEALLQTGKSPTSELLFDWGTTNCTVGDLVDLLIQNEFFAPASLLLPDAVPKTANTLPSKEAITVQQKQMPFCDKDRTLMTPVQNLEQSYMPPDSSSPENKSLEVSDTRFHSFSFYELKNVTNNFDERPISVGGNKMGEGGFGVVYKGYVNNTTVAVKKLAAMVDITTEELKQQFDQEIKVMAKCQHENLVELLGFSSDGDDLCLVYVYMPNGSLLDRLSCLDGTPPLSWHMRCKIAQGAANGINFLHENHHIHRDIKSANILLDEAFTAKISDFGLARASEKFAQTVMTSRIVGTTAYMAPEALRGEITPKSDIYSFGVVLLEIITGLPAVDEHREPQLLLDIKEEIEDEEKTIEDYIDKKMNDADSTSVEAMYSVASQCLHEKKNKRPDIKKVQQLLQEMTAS

Row | Structure (SMILES) | IC50 [nM]
1 | CC(C)n1cc(NC(=O)c2cnn3ccc(N4CC5CCC4CN5)nc23)c(C(F)(F)F)n1 (centres unmarked) [Example 53, 5-(2,5-diazabicyclo[2.2.2]oct-2-yl)-N-[1-(1-methylethyl)-3-(trifluoromethyl)-1H-pyrazol-4-yl]pyrazolo[1,5-a]pyrimidine-3-carboxamide] | 48
2 | CC(C)n1cc(NC(=O)c2cnn3ccc(N[C@@H]4CCCC(F)(F)[C@@H]4N)nc23)c(C(F)(F)F)n1 [Example 56, 5-{[(1R,2R)-2-amino-3,3-difluorocyclohexyl]amino}-N-[1-(1-methylethyl)-3-(trifluoromethyl)-1H-pyrazol-4-yl]pyrazolo[1,5-a]pyrimidine-3-carboxamide trifluoroacetate] | 626
3 | O=C(Nc1cn(CC(F)(F)F)nc1C(F)(F)F)c1cnn2ccc(N[C@@H]3CCCC[C@@H]3O)nc12 [Example 57, 5-{[(1R,2S)-2-hydroxycyclohexyl]amino}-N-[1-(2,2,2-trifluoroethyl)-3-(trifluoromethyl)-1H-pyrazol-4-yl]pyrazolo[1,5-a]pyrimidine-3-carboxamide trifluoroacetate] | 320
4 | O=C(Nc1cn(CC(F)F)nc1C(F)(F)F)c1cnn2ccc(N[C@@H]3CCCC[C@@H]3O)nc12 [Example 63, N-[1-(2,2-difluoroethyl)-3-(trifluoromethyl)-1H-pyrazol-4-yl]-5-{[(1R,2S)-2-hydroxycyclohexyl]amino} pyrazolo[1,5-a]pyrimidine-3-carboxamide trifluoroacetate] | 38
5 | O=C(Nc1cn(CC(F)F)nc1C(F)(F)F)c1cnn2ccc(N3CCNCC4(CC4)C3)nc12 [Example 64, 5-(5,8-diazaspiro[2.6]non-5-yl)-N-[1-(2,2-difluoroethyl)-3-(trifluoromethyl)-1H-pyrazol-4-yl]pyrazolo[1,5-a]pyrimidine-3-carboxamide trifluoroacetate] | 18

More lines, now with the values ahead:

Row | IC50 [nM] | Structure (SMILES)
6 | 267 | O=C(Nc1cn(CC(F)(F)F)nc1C(F)(F)F)c1cnn2ccc(N3CC4CCC3CN4)nc12 (centres unmarked) [Example 58, 5-(2,5-diazabicyclo[2.2.2]oct-2-yl)-N-[1-(2,2,2-trifluoroethyl)-3-(trifluoromethyl)-1H-pyrazol-4-yl]pyrazolo[1,5-a]pyrimidine-3-carboxamide trifluoroacetate]
7 | 244 | N[C@@H]1[C@H](Nc2ccn3ncc(C(=O)Nc4cn(CC(F)F)nc4C(F)(F)F)c3n2)CCCC1(F)F [Example 66, 5-{[(1R,2R)-2-amino-3,3-difluorocyclohexyl]amino}-N-[1-(2,2-difluoroethyl)-3-(trifluoromethyl)-1H-pyrazol-4-yl]pyrazolo[1,5-a]pyrimidine-3-carboxamide trifluoroacetate]
8 | 74 | O=C(Nc1cn(C(F)F)nc1C(F)(F)F)c1cnn2ccc(N3CC4CCC3CN4)nc12 (centres unmarked) [Example 67, 5-(2,5-diazabicyclo[2.2.2]oct-2-yl)-N-[1-(difluoromethyl)-3-(trifluoromethyl)-1H-pyrazol-4-yl]pyrazolo[1,5-a]pyrimidine-3-carboxamide trifluoroacetate]
9 | 59 | O=C(Nc1cn(CC(F)F)nc1C(F)(F)F)c1cnn2ccc(N3CC4CCC3CN4)nc12 (centres unmarked) [Example 65, 5-(2,5-diazabicyclo[2.2.2]oct-2-yl)-N-[1-(2,2-difluoroethyl)-3-(trifluoromethyl)-1H-pyrazol-4-yl]pyrazolo[1,5-a]pyrimidine-3-carboxamide trifluoroacetate]
10 | 29 | O=C(Nc1cn(CC(F)F)nc1C(F)(F)F)c1cnn2ccc(N3CCNCC3)nc12 [Example 62, N-[1-(2,2-difluoroethyl)-3-(trifluoromethyl)-1H-pyrazol-4-yl]-5-piperazin-1-ylpyrazolo[1,5-a]pyrimidine-3-carboxamide trifluoroacetate]

Same assay, conditions: IRAK4 IC50 (nM), IMAP fluorescence polarization, 0.5 nM GST tagged IRAK4, 100 μM ATP, 30 minutes at 25° C.

Row | Structure (SMILES) | IC50 [nM]
11 | CC(C)n1cc(NC(=O)c2cnn3ccc(N[C@@H]4CCCC[C@@H]4O)nc23)c(C(F)(F)F)n1 [Example 52, 5-{[(1R,2S)-2-hydroxycyclohexyl]amino}-N-[1-(1-methylethyl)-3-(trifluoromethyl)-1H-pyrazol-4-yl]pyrazolo[1,5-a]pyrimidine-3-carboxamide] | 64
